According to patent publication US20060252807A1, “Novel ortho-terphenyl inhibitors of p38 kinase and methods of treating inflammatory disorders” (Kalypsys, Inc., priority 2005, published 2006):

The compounds below were run against T1, active p38 alpha enzyme (Upstate Biotechnology) (Homo sapiens, UniProt Q16539) (assay: p38α biochemical assay (ATP turnover, luminescent detection, Cambrex PKlight)). Settings: p38α biochemical assay, Table 1 Biological Activity.
T1 construct: purchased Upstate Biotechnology
T1 sequence (Q16539 whole entry): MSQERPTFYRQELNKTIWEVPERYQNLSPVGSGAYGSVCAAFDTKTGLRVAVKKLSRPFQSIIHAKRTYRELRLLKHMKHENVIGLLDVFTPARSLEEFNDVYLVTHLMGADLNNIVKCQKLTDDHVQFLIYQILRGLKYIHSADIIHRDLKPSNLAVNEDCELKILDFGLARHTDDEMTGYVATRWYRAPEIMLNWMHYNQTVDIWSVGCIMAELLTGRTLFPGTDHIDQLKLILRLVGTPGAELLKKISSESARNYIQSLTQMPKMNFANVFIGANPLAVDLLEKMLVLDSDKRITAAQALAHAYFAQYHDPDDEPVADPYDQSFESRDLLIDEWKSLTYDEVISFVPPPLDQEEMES
How it was run: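 Active p38α phosphorylates MapkapK2 whole protein with 1.4 uM final ATP, 2 h at 30C, in Tris/MOPS buffer with MgCl2, CaCl2, EGTA, EDTA, glycerol, β-mercaptoethanol and 1 mg/ml BSA. Compounds pin-delivered from DMSO; total ATP turnover read by luminescence after PKlight addition.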

SMILES	IC50 [µM]
CC(C)NC(=O)c1csc(-c2oc(CN3CCN(C(=O)c4cccc(C#N)c4)CC3)nc2-c2ccc(F)cc2)n1 [Example 367]	> 1
CC(C)NC(=O)c1csc(-c2oc(CNC(=O)c3ccc(Cl)cc3O)nc2-c2ccc(F)cc2)n1 [Example 195]	> 1
CC(C)NC(=O)c1csc(-c2oc(CN3CCN(C(=O)c4ccc5ccccc5c4O)CC3)nc2-c2ccc(F)cc2)n1 [Example 482]	> 1
CCNC(=O)c1csc(-c2sc(C)nc2-c2ccc(F)cc2)n1 [Example 48, 4′-(4-Fluoro-phenyl)-2′-methyl-|2,5′|bithiazolyl-4-carboxylic acid ethylamide]	≤ 1
CC(C)NC(=O)c1csc(-c2oc(CN3CCN(C(=O)C(C(C)C)N(C)C(=O)OC(C)(C)C)CC3)nc2-c2ccc(F)cc2)n1 (stereo not drawn) [Example 555]	> 1
CC(C)NC(=O)c1csc(-c2oc(CNC(=O)Cc3c(F)cccc3F)nc2-c2ccc(F)cc2)n1 [Example 193]	≤ 1
CC(C)NC(=O)c1csc(-c2oc(CNC(=O)c3cc(Cl)ccc3[N+](=O)[O-])nc2-c2ccc(F)cc2)n1 [Example 275]	≤ 1
CC(C)NC(=O)c1csc(-c2oc(CNC(=O)c3cc(O)ccc3O)nc2-c2ccc(F)cc2)n1 [Example 146]	≤ 1
CC(C)NC(=O)c1csc(-c2oc(CNC(=O)c3cc4cc(Cl)ccc4o3)nc2-c2ccc(F)cc2)n1 [Example 264]	≤ 1
CC(=O)Oc1cccc(C(=O)N2CCN(Cc3nc(-c4ccc(F)cc4)c(-c4nc(C(=O)NC(C)C)cs4)o3)CC2)c1 [Example 452]	≤ 1
CC(C)NC(=O)c1csc(-c2oc(CN3CCN(C(=O)C4CN(C(=O)OC(C)(C)C)CCN4)CC3)nc2-c2ccc(F)cc2)n1 (stereo not drawn) [Example 552]	> 1
CC(C)NC(=O)c1csc(-c2c(-c3ccc(F)cc3)noc2CNC(=O)c2cccc(F)c2F)n1 [Example 633]	> 1
CC(C)NC(=O)c1csc(-c2c(-c3ccc(F)cc3)noc2CN2CCCCC2)n1 [Example 30, 2-|3-(4-Fluoro-phenyl)-5-piperidin-1-ylmethyl-isoxazol-4-yl|-thiazole-4-carboxylic acid isopropylamide]	> 1
Cc1onc(-c2ccc(Cl)cc2)c1-c1ccn(C(=O)NC2CCCCC2)n1 [Example 8, 3-|3-(4-Chloro-phenyl)-5-methyl-isoxazol-4-yl|-pyrazole-1-carboxylic acid cyclohexylamide]	≤ 1
CC(C)NC(=O)c1csc(-c2oc(CN3CCN(C(=O)Cc4cccc(O)c4)CC3)nc2-c2ccc(F)cc2)n1 [Example 381]	≤ 1
CC(C)NC(=O)c1csc(-c2oc(CN3CCN(C(=O)C4CC(O)CN4C(=O)OC(C)(C)C)CC3)nc2-c2ccc(F)cc2)n1 (stereo not drawn) [Example 554]	> 1
Cc1cccc([N+](=O)[O-])c1C(=O)NCc1onc(-c2ccc(F)cc2)c1-c1nc(C(=O)NC(C)C)cs1 [Example 695]	> 1
CC(C)NC(=O)c1csc(-c2c(-c3ccc(F)cc3)noc2CNC(=O)c2ccccc2C=O)n1 [Example 607]	> 1
Cc1ccc(F)cc1C(=O)NCc1nc(-c2ccc(F)cc2)c(-c2nc(C(=O)NC(C)C)cs2)o1 [Example 150]	≤ 1
CC(C)NC(=O)c1csc(-c2oc(CN3CCN(C(=O)c4cc(Cl)ccc4Cl)CC3)nc2-c2ccc(F)cc2)n1 [Example 490]	> 1
CC(C)NC(=O)c1csc(-c2oc(CNC(=O)c3ccc(OC(C)C)cc3)nc2-c2ccc(F)cc2)n1 [Example 219]	> 1
CC(C)NC(=O)c1csc(-c2oc(CNC(=O)c3ccc([N+](=O)[O-])c(O)c3)nc2-c2ccc(F)cc2)n1 [Example 232]	> 1
CC(C)NC(=O)c1csc(-c2oc(CN3CCN(C(=O)c4cc(Cl)ccn4)CC3)nc2-c2ccc(F)cc2)n1 [Example 392]	> 1
CC(C)NC(=O)c1csc(-c2oc(CNC(=O)/C=C/c3cccc(O)c3)nc2-c2ccc(F)cc2)n1 [Example 168]	≤ 1
Cc1ccc(SCC(=O)N2CCN(Cc3nc(-c4ccc(F)cc4)c(-c4nc(C(=O)NC(C)C)cs4)o3)CC2)cc1 [Example 466]	> 1
CC(C)NC(=O)c1csc(-c2oc(CNC(=O)Cc3cccc(O)c3)nc2-c2ccc(F)cc2)n1 [Example 144]	≤ 1
CC(C)NC(=O)c1csc(-c2oc(CN3CCN(C(=O)c4ccc(F)c(F)c4)CC3)nc2-c2ccc(F)cc2)n1 [Example 398]	> 1

Same assay, conditions: p38α kinase; Table 1 Biological Activity

SMILES	IC50 [µM]
COc1ccccc1CCNCc1nc(-c2ccc(F)cc2)c(-c2nc(C(=O)NC(C)C)cs2)o1 [Example 1146]	> 1
CC(C)NC(=O)c1csc(-c2c(-c3ccc(F)cc3)noc2CNc2cccc(C(F)(F)F)c2)n1 [Example 1681]	> 1
CC(C)NC(=O)c1csc(-c2c(-c3ccc(F)cc3)noc2CNCC(=O)c2ccccc2)n1 [Example 1491]	> 1
COc1ccc(/C=C/C(=O)N2CCC(c3[nH]nc(-c4ccc(F)cc4)c3-c3nc(C(=O)NC(C)C)cs3)CC2)cc1O [Example 976]	> 1
Cc1ccnc(NCc2onc(-c3ccc(F)cc3)c2-c2nc(C(=O)NC(C)C)cs2)c1 [Example 1636]	> 1
CC(C)NC(=O)c1csc(-c2oc(CNCC(C)c3ccccc3)nc2-c2ccc(F)cc2)n1 (stereo not drawn) [Example 1118]	> 1
CC(C)NC(=O)c1csc(-c2c(-c3ccc(F)cc3)noc2CNCCc2cccc(F)c2)n1 [Example 1460]	> 1
Cc1nc(-c2ccc(F)cc2)c(-c2nc(C(=O)Nc3cc(C(F)(F)F)ccc3F)cs2)s1 [Example 2014]	> 1
CC(C)NC(=O)c1csc(-c2oc(CN(CCC#N)Cc3cccnc3)nc2-c2ccc(F)cc2)n1 [Example 1240]	> 1
CC(C)NC(=O)c1csc(-c2oc(CNCc3ccc(F)cc3)nc2-c2ccc(F)cc2)n1 [Example 1104]	> 1
O=C(NCc1ccccc1F)c1csc(-c2c(-c3ccc(F)cc3)n[nH]c2C2CCNCC2)n1 [Example 2082]	≤ 1
CCOC(=O)CC(C)NC(=O)c1csc(-c2c(-c3ccc(F)cc3)n[nH]c2C2CCNCC2)n1 (stereo not drawn) [Example 2088]	> 1
CC(C)NC(=O)c1csc(-c2oc(CN3CCN(c4ccccc4C#N)CC3)nc2-c2ccc(F)cc2)n1 [Example 1260]	> 1
Cc1cccc(C(=O)N2CCC(c3[nH]nc(-c4ccc(F)cc4)c3-c3nc(C(=O)NC(C)C)cs3)CC2)c1[N+](=O)[O-] [Example 935]	> 1
CC(C)NC(=O)c1csc(-c2c(-c3ccc(F)cc3)n[nH]c2C2CCN(C(=O)c3ccc(Br)cc3)CC2)n1 [Example 983]	> 1
COc1cccc(CNCc2onc(-c3ccc(F)cc3)c2-c2nc(C(=O)NCC(C)C)cs2)c1 [Example 1457]	> 1
CCOc1cccc(NCc2onc(-c3ccc(F)cc3)c2-c2nc(C(=O)NC(C)C)cs2)c1 [Example 1664]	> 1
CCCOc1ccc(C(=O)N2CCC(c3[nH]nc(-c4ccc(F)cc4)c3-c3nc(C(=O)NC(C)C)cs3)CC2)cc1 [Example 932]	> 1
CC(C)NC(=O)c1csc(-c2c(-c3ccc(F)cc3)noc2CNCc2ccc(F)cc2F)n1 [Example 1465]	> 1
Cc1cccc(C(C)(C)C)c1NCc1onc(-c2ccc(F)cc2)c1-c1nc(C(=O)NC(C)C)cs1 [Example 1683]	> 1

SMILES	IC50 [µM]
CC(=O)Nc1ccc(NCc2nc(-c3ccc(F)cc3)c(-c3nc(C(=O)NC(C)C)cs3)o2)cc1 [Example 1351]	> 1
CC(C)NC(=O)c1csc(-c2c(-c3ccc(F)cc3)n[nH]c2C2CCN(C(=O)c3cc(F)c(F)c(O)c3F)CC2)n1 [Example 968]	> 1
CC(C)NC(=O)c1csc(-c2c(-c3ccc(F)cc3)n[nH]c2C2CCN(C(=O)c3ccc(F)c([N+](=O)[O-])c3)CC2)n1 [Example 951]	> 1
CC(C)NC(=O)c1csc(-c2oc(CN3CCCC(C(N)=O)C3)nc2-c2ccc(F)cc2)n1 (stereo not drawn) [Example 1222]	> 1
Cc1nc(-c2ccc(F)cc2)c(-c2nc(C(=O)N3CCC(Cc4ccccc4)CC3)cs2)s1 [Example 1899]	> 1
CC(CNC(=O)c1csc(-c2c(-c3ccc(F)cc3)n[nH]c2C2CCNCC2)n1)c1ccccc1 (stereo not drawn) [Example 2095]	> 1
CCC(CO)NC(=O)c1csc(-c2sc(C)nc2-c2ccc(F)cc2)n1 (stereo not drawn) [Example 1728]	≤ 1
CC(C)NC(=O)c1csc(-c2c(-c3ccc(F)cc3)n[nH]c2C2CCN(C(=O)C3=CC=CC(Cl)C=C3[N+](=O)[O-])CC2)n1 (stereo not drawn) [Example 987]	> 1
COc1cc2c(cc1OC)CN(C(=O)c1csc(-c3sc(C)nc3-c3ccc(F)cc3)n1)CC2 [Example 1946]	≤ 1
CCOC(=O)CC1C(=O)NCCN1C(=O)c1csc(-c2sc(C)nc2-c2ccc(F)cc2)n1 (stereo not drawn) [Example 1908]	≤ 1
CCCCN(CC)C(=O)c1csc(-c2sc(C)nc2-c2ccc(F)cc2)n1 [Example 1852]	> 1
CC(=O)c1ccc(NC(=O)c2csc(-c3sc(C)nc3-c3ccc(F)cc3)n2)cc1 [Example 1984]	> 1
CC(C)NC(=O)c1csc(-c2c(-c3ccc(F)cc3)n[nH]c2C2CCN(C(=O)C3Cc4ccccc4CN3C(=O)OC(C)(C)C)CC2)n1 (stereo not drawn) [Example 1047]	> 1
CC(C)NC(=O)c1csc(-c2oc(CN3CCC[C@@H]3CO)nc2-c2ccc(F)cc2)n1 [Example 1201]	> 1
CC(C)NC(=O)c1csc(-c2c(-c3ccc(F)cc3)noc2CNc2ccccc2-c2ccccc2)n1 [Example 1685]	> 1
CC(C)NC(=O)c1csc(-c2c(-c3ccc(F)cc3)noc2CNc2cc(C(F)(F)F)cc(C(F)(F)F)c2)n1 [Example 1698]	> 1
CC(C)NC(=O)c1csc(-c2c(-c3ccc(F)cc3)n[nH]c2C2CCN(C(=O)c3cc(Cl)c(O)c(Cl)c3)CC2)n1 [Example 995]	> 1
CC(C)NC(=O)c1csc(-c2oc(CN3CCN(c4ccc(C(C)(C)C)cc4)CC3)nc2-c2ccc(F)cc2)n1 [Example 1293]	> 1
C#CCN(C)Cc1nc(-c2ccc(F)cc2)c(-c2nc(C(=O)NC(C)C)cs2)o1 [Example 1187]	> 1
